Reference: US9505710B2 (priority 2015, dated 2016)

Biological target: BoNT/A LC1-429 (Clostridium botulinum, UniProt P0DPI1)
Experiment: biochemical

Chain of BoNT/A LC1-429 (P0DPI1 1-429, added parts left off): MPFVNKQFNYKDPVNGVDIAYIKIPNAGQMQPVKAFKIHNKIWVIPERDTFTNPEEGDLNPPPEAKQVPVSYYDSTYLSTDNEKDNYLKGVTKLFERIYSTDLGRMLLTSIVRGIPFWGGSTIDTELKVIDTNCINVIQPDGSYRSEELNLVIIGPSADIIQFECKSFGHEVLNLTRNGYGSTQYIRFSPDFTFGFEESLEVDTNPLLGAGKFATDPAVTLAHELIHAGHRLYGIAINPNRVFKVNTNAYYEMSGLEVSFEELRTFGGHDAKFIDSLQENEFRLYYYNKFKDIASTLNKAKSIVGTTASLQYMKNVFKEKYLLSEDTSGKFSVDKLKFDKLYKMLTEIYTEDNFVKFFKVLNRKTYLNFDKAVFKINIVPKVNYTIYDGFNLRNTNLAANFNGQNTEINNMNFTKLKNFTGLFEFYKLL

| Structure (SMILES) | Ki |
| --- | --- |
| CCO[C@H](CC(=O)NO)[C@H](Cc1ccc(C(=O)N(C)C)cc1)c1ccc(F)cc1 [Example 1-8, 4-((2R,3R)-3-ethoxy-2-(4-fluorophenyl)-5-(hydroxyamino)-5-oxopentyl)-N,N-dimethylbenzamide] | 4.35 µM |
| CCO[C@H](CC(=O)NO)[C@H](Cc1ccc(C(=O)O)cc1)c1ccc(F)cc1 [Example 1-10, 4-((2R,3R)-3-ethoxy-2-(4-fluorophenyl)-5-(hydroxyamino)-5-oxopentyl)benzoic acid] | 23.3 µM |
| CCO[C@H](CC(=O)NO)[C@H](Cc1cccc(-c2ccncc2)c1)c1ccc(F)cc1 [Example 1-11, (3R,4R)-3-ethoxy-4-(4-fluorophenyl)-N-hydroxy-5-(3-(pyridin-4-yl)phenyl)pentanamide] | 1.06 µM |
| CCO[C@H](CC(=O)NO)[C@H](Cc1ccc(-c2ccncc2)cc1)c1ccc(F)cc1 [Example 1-12, (3R,4R)-3-ethoxy-4-(4-fluorophenyl)-N-hydroxy-5-(4-(pyridin-4-yl)phenyl)pentanamide] | 0.178 µM |
| CCO[C@H](CC(=O)NO)[C@H](Cc1ccc(-c2cccnc2)cc1)c1ccc(F)cc1 [Example 1-13, (3R,4R)-3-ethoxy-4-(4-fluorophenyl)-N-hydroxy-5-(4-(pyridin-3-yl)phenyl)pentanamide] | 0.147 µM |
| CCO[C@H](CC(=O)NO)[C@H](Cc1ccc(-c2cncc(C)c2)cc1)c1ccc(F)cc1 [Example 1-14, (3R,4R)-3-ethoxy-4-(4-fluorophenyl)-N-hydroxy-5-(4-(5-methylpyridin-3-yl)phenyl)pentanamide] | 0.158 µM |
